Data from US9790235B2, “MK2 inhibitors and uses thereof” (Celgene CAR LLC, priority 2014, dated 2017).
Where two headings read alike, the source gives them in different places.

Tests used:
[1] = molecular target: T1, MK2 (Homo sapiens (Human), UniProt P49137); experiment: MK2 cellular assay, total and phospho-Hsp27 (Serine 78) by MSD ELISA (Thp1); type: cell-based; conditions: Thp-1 cells, 1 hour compound, 50 ng/mL LPS 45 minutes, p-HSP27 (Ser78)/total HSP27; read-out: pHSP27 signaling EC50
Protocol: MK2 Cellular Assay—Detection of Total and Phospho-Hsp27 (Serine 78) by MSD ELISA (Thp1)
Compounds of the invention were assayed in Thp-1 human acute monocytic leukemia cells to measure inhibition of MK2 activity. Thp-1 cells were grown in culture medium containing RPMI/10% FBS (fetal bovine serum)/0.05 mM 2-mercaptoethanol. 72 hours prior to the assay, 8×10^4 cells per well were plated in a 96 well flat bottom plate along with 10 ng/mL phorbol 12-myristate 13-acetate (PMA). Cells were cultured in an incubator at 37° C. until needed for the assay. Cell plate media was replaced with culture media just prior to assay while compound dilutions were being made.
Stock solutions of test compound, 1 mM in DMSO, were prepared. 0.9 μl of test compound was added to 300 μl cell media for a starting concentration of 3000 nM. […] Cell plate media was discarded, followed by addition of 100 μl of the compound containing media. The resulting preparation was incubated at 37° C. for 1 hour.
Test compound-containing cell assay media was removed and the cells were washed once with cell assay media. Cell assay media containing 50 ng/mL LPS (lipopolysaccharide) was added to the each well and incubated for 45 minutes. Following LPS incubation, the cells were washed once with PBS (phosphate-buffered saline) and lysed with 60 μl Cell Extraction Buffer (Invitrogen #FNN0011) plus protease and phosphatase inhibitors. The plate was then stored at −80° C. until further analysis.
The MULTI-SPOT Phospho(Ser78)/Total HSP27 ELISA Assay kit was purchased from Meso Scale […] (MSD; catalog #K15128D). […] The pre-coated MSD plate was blocked with 150 μL/well of 3% BSA in MSD wash buffer. The preparation was placed on a shaker at room temperature for an hour. While the ELISA plate was blocked, the cell assay plate stored at −80° C. was placed on a shaker at 4° C. for 1 hour to thaw.
The blocked MSD plate was washed on a plate washer, tapping out the last bit of wash solution, followed by addition of 30 μl of the lysate from the cell assay plate. The preparation was covered and incubated for 1 hour at room temperature. The lysate was removed, the plate was washed 3 times on a plate washer and the last bit of wash buffer was tapped out and replaced with 25 μl/well detection antibody (anti-total HSP27 conjugated with an electrochemiluminescent compound, MSD SULFO-TAG label, supplied in kit) made in 1% BSA/MSD wash buffer. The plate was incubated for 1 hour at room temperature on a shaker, followed by 3 washes. The last bit of wash buffer was tapped out. 150 μl/well 1×MSD read buffer was added (4× read buffer supplied with kit) and the plate was analyzed on the MSD SECTOR® Imager for analysis. The SECTOR® Imager measures intensity of emitted light to provide a quantitative measure of phosphorylated HSP27 (Ser78) and total HSP27 present in the sample. The relative percent phosphoprotein in a sample is calculated by dividing the Phospho-HSP27 signal intensity over the total HSP27 signal intensity measured in each well.

[2] = molecular target: T1, MK2
[3] = molecular target: p38α activated, mitogen-activated protein kinase-activated protein kinase 2 (MAPKAP-K2 or MK2) enzyme (Homo sapiens (Human), UniProt P49137); experiment: MK2 Omnia continuous-read kinase assay for compound potency; type: biochemical; conditions: [MK-2]=0.4 nM, [ATP]=10 μM, [ST3-Sox]=10 μM; read-out: MK2 IC50
Chain of p38α activated, mitogen-activated protein kinase-activated protein kinase 2 (MAPKAP-K2 or MK2) enzyme (P49137 whole entry): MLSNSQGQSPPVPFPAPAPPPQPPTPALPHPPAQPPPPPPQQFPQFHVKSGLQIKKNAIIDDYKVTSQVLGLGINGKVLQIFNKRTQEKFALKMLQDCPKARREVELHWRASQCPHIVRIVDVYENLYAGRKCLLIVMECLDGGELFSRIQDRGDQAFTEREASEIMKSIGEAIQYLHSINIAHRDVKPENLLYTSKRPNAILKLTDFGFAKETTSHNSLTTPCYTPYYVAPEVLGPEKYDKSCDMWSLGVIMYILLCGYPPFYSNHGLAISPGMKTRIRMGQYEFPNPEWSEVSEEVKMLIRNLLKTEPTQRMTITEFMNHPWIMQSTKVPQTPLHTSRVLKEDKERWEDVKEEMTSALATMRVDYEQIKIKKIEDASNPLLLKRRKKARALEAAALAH
From the text: Mitogen-Activated Protein Kinase-Activated Protein Kinase 2 Omnia® Assay for Compound Potency Assessment:
The protocol below describes a continuous-read kinase assay optimized to measure potency of compounds against p38α activated, mitogen-activated protein kinase-activated protein kinase 2 (MAPKAP-K2 or MK2) enzyme. Further details of this assay are described by Life Technologies, Carlsbad, Calif. on their website at the following URL: http://tools.lifetechnologies.com/content/sfs/manuals/omnia_kinase_assay_man.pdf.
[Reagent] used: • [MK-2]=0.4 nM, • [ATP]=10 μM and • [ST3-Sox]=10 μM (ATP^appKM=10 μM)
Kinase reactions were started with the addition of 45 μL of the ATP-peptide substrate S/T3-Sox mix and monitored every 71 seconds for 120 minutes at λex360/λem485 in a Synergy H4 plate reader from BioTek (Winooski, Vt.) at room temperature.
Background signals from the no enzyme control wells were subtracted from all progress curves. The initial linear portions of the net progress curves were fit according to a linear equation to yield the slope and percentage of inhibition (% inhibition) at each compound concentration. The net progress curves obtained during the first two hours of reactions were also fit according to an ascending single-exponential equation (Eq. 1) to yield kobs values at each compound concentration. Plots of % Inhibition versus inhibitor concentrations were fit according to a dose-response equation (Eq. 2) to generate IC50 and Hill slope values while plots of kobs versus inhibitor concentration were fit according to Equation 3 (Eq. 3) to generate apparent kinact/KI values using the GraphPad PRISM software (Version 6.00; GraphPad San Diego, Calif.).
[formula] where F is the fluorescence intensity from the plate reader, V0 is a constant reflecting the relationship between the instrument readout and product concentration, t is time, e is Euler's number, and kobs is the observed inactivation rate constant.
[formula] where % Inhibition is percentage of inhibition, IC50 is half maximal inhibitory concentration, [I] is the inhibitor concentration, and n is the Hill slope.

[4] = percentage of modified protein after 60 minutes at room temperature, 10-fold excess of compound, MALDI (I-1 to I-50), magnetic bead MALDI (I-51 to I-129)
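For Mass Modification in this document: covalent binding read from centroid mass shift of compound-treated versus untreated intact MK2, shift divided by compound molecular weight, giving fraction of total protein bound.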

T1 sequence (P49137 whole entry): as above

| IC50 [3] [µM] | Compound | EC50 [1] [µM] | Mass Modification [2, 4] | Mass Modification [2] |
| --- | --- | --- | --- | --- |
| < 0.1 | C[C@@H]1CNc2c(sc3ccc4nc(Nc5nc(Cl)nc(N6CCN(C)CC6)n5)ccc4c23)C(=O)N1 [I-10, (R)-3-((4-chloro-6-(4-methylpiperazin-1-yl)-1,3,5-triazin-2-yl)amino)-10-methyl-9,10,11,12-tetrahydro-8H-[1,4]diazepino[5′,6′:4,5]thieno[3,2-f]quinolin-8-one] | 0.101 to 0.5 | G (mass modification ≦30%) |  |
|  | C[C@@H]1CNc2c(sc3ccc4nc(Nc5nccc(Cl)n5)ccc4c23)C(=O)N1 [I-13, (R)-3-((4-chloropyrimidin-2-yl)amino)-10-methyl-9,10,11,12-tetrahydro-8H-[1,4]diazepino[5′,6′:4,5]thieno[3,2-f]quinolin-8-one] | > 1 |  | G (key: E: mass modification of ≧70%; F: mass modification of 31-69%; G: mass modification ≦30%) |
|  | C[C@@H]1CNc2c(sc3ccc4nc(Nc5nc(Cl)ncc5C(=O)NC5COC5)ccc4c23)C(=O)N1 [I-20, (R)-2-chloro-4-((10-methyl-8-oxo-9,10,11,12-tetrahydro-8H-[1,4]diazepino[5′,6′:4,5]thieno[3,2-f]quinolin-3-yl)amino)-N-(oxetan-3-yl)pyrimidine-5-carboxamide] | > 1 | G (mass modification ≦30%) |  |
|  | C[C@@H]1CNc2c(sc3ccc4nc(Nc5nc(Cl)ncc5C(=O)NC5CC5)ccc4c23)C(=O)N1 [I-21, (R)-2-chloro-N-cyclopropyl-4-((10-methyl-8-oxo-9,10,11,12-tetrahydro-8H-[1,4]diazepino[5′,6′:4,5]thieno[3,2-f]quinolin-3-yl)amino)pyrimidine-5-carboxamide] | > 1 | G (mass modification ≦30%) |  |
|  | CN(C)C[C@@H]1CNc2c(sc3ccc4nc(Nc5cc(F)ncn5)ccc4c23)C(=O)N1 [I-31, (S)-10-((dimethylamino)methyl)-3-((6-fluoropyrimidin-4-yl)amino)-9,10,11,12-tetrahydro-8H-[1,4]diazepino[5′,6′:4,5]thieno[3,2-f]quinolin-8-one] | > 1 | F (mass modification of 31-69%) |  |
| < 0.1 | C[C@@H]1CNc2c(sc3ccc4nc(Nc5cc(F)nc(OCCN6CCN(C)CC6)n5)ccc4c23)C(=O)N1 [I-48, (R)-3-((6-fluoro-2-(2-(4-methylpiperazin-1-yl)ethoxy)pyrimidin-4-yl)amino)-10-methyl-9,10,11,12-tetrahydro-8H-[1,4]diazepino[5′,6′:4,5]thieno[3,2-f]quinolin-8-one] | > 1 |  |  |
| < 0.1 | C[C@@H]1CNc2c(sc3ccc4nc(Oc5nc(Cl)ncc5CN5CCC[C@H]5C)ccc4c23)C(=O)N1 [I-99, (R)-3-((2-chloro-5-(((R)-2-methylpyrrolidin-1-yl)methyl)pyrimidin-4-yl)oxy)-10-methyl-9,10,11,12-tetrahydro-8H-[1,4]diazepino[5′,6′:4,5]thieno[3,2-f]quinolin-8-one] | < 0.1 |  |  |
| < 0.1 | C[C@@H]1CNc2c(sc3ccc4nc(Oc5nc(Cl)ncc5CN5CCC[C@@H]5C)ccc4c23)C(=O)N1 [I-101] | < 0.1 |  |  |
| 0.501 to 0.999 | C[C@@H]1CNc2c(sc3ccc4nc(Oc5ncncc5CN(C)C(C)(C)C)ccc4c23)C(=O)N1 [I-104, (R)-3-((5-((tert-butyl(methyl)amino)methyl)pyrimidin-4-yl)oxy)-10-methyl-9,10,11,12-tetrahydro-8H-[1,4]diazepino[5′,6′:4,5]thieno[3,2-f]quinolin-8-one] | > 1 |  |  |
| 0.101 to 0.5 | CO[C@H]1CCCN(Cc2cnc(Cl)nc2Oc2ccc3c(ccc4sc5c(c43)NC[C@@H](C)NC5=O)n2)C1 [I-106, (R)-3-((2-chloro-5-(((S)-3-methoxypiperidin-1-yl)methyl)pyrimidin-4-yl)oxy)-10-methyl-9,10,11,12-tetrahydro-8H-[1,4]diazepino[5′,6′:4,5]thieno[3,2-f]quinolin-8-one] | < 0.1 |  |  |
|  | C[C@@H]1CNc2c(sc3ccc4nc(Oc5cc(CNC(C)(C)C)nc(Cl)n5)ccc4c23)C(=O)N1 [I-117, (R)-3-((6-((tert-butylamino)methyl)-2-chloropyrimidin-4-yl)oxy)-10-methyl-9,10,11,12-tetrahydro-8H-[1,4]diazepino[5′,6′:4,5]thieno[3,2-f]quinolin-8-one] | < 0.1 |  |  |

| Compound | IC50 [3] [µM] | EC50 [1] [µM] | Mass Modification [2, 4] | Mass Modification [2] |
| --- | --- | --- | --- | --- |
| C[C@@H]1CNc2c(sc3ccc4nc(Nc5nc(Cl)ncc5C(N)=O)ccc4c23)C(=O)N1 [I-9, (R)-2-chloro-4-((10-methyl-8-oxo-9,10,11,12-tetrahydro-8H-[1,4]diazepino[5′,6′:4,5]thieno[3,2-f]quinolin-3-yl)amino)pyrimidine-5-carboxamide] | < 0.1 | < 0.1 | E (mass modification of ≧70%) |  |
| C[C@@H]1CNc2c(sc3ccc4nc(Nc5ccnc(S(C)(=O)=O)n5)ccc4c23)C(=O)N1 [I-14, (R)-10-methyl-3-((2-(methylsulfonyl)pyrimidin-4-yl)amino)-9,10,11,12-tetrahydro-8H-[1,4]diazepino[5′,6′:4,5]thieno[3,2-f]quinolin-8-one] | < 0.1 | > 1 | G (mass modification ≦30%) |  |
| C[C@@H]1CNc2c(sc3ccc4nc(Nc5cc(Cl)ncc5C(N)=O)ccc4c23)C(=O)N1 [I-15, (R)-6-chloro-4-((10-methyl-8-oxo-9,10,11,12-tetrahydro-8H-[1,4]diazepino[5′,6′:4,5]thieno[3,2-f]quinolin-3-yl)amino)nicotinamide] | < 0.1 | > 1 | G (mass modification ≦30%) |  |
| C[C@@H]1CNc2c(sc3ccc4nc(Nc5nc(Cl)ncc5C#N)ccc4c23)C(=O)N1 [I-16, (R)-2-chloro-4-((10-methyl-8-oxo-9,10,11,12-tetrahydro-8H-[1,4]diazepino[5′,6′:4,5]thieno[3,2-f]quinolin-3-yl)amino)pyrimidine-5-carbonitrile] | < 0.1 | < 0.1 | E (mass modification of ≧70%) |  |
| C[C@@H]1CNc2c(sc3ccc4nc(Oc5nc(Cl)ncc5-c5cccnc5)ccc4c23)C(=O)N1 [I-123, (R)-3-((2-chloro-5-(pyridin-3-yl)pyrimidin-4-yl)oxy)-10-methyl-9,10,11,12-tetrahydro-8H-[1,4]diazepino[5′,6′:4,5]thieno[3,2-f]quinolin-8-one] | < 0.1 | < 0.1 |  |  |
